By melting point is commonly meant the temperature of the solid-liquid transition.

Where only a bound is given, the exact number is not on record here.

`Cc1[nH]c(C(=O)NCCC(=O)O)c(C)c1-c1nc2ccc(C(=O)c3ccccc3)cc2[nH]1`: the melting point is 256 to 258 °C.
`O=C1c2cc(O)ccc2OCC1Cc1c[nH]c2ccccc12` (stereo not drawn) returned a melting point of 188 to 190 °C.
Take `CC(=O)Nc1ccc(Cn2cnc3c(Cl)ncnc32)cc1`: the melting point was in the range of 240 to 242 °C.
`Cc1oc(-c2ccccc2)nc1CNS(=O)(=O)c1ccc(CC2SC(=O)NC2=O)cc1` (stereo not drawn) came in with a melting point of 120 to 122 °C.
As to `Cc1c(Br)cccc1NS(=O)(=O)c1cc(S(=O)(=O)Nc2cccc(Br)c2C)c2cc(O)ccc2c1`, the melting point fell in the range of 129 to 131 °C.
Under `CCCCCCCCCCOc1ccc(C(=O)O)cc1C12CC3CC(CC(C3)C1)C2` stands 151 to 152 °C.
In turn, `CCOC(=O)c1cn(C2CC2)c2c(F)c(F)c(F)c(NCc3ccccc3)c2c1=O` came in with a melting point of 134 to 135 °C.
`O=Cc1cnc(Sc2nc3ccccc3[nH]2)s1`: the melting point turned out to be 188 °C.
For the molecule `Nc1cc(-n2cc(C(=O)O)c(=O)c3cc(F)c(NC4CC4)c(Cl)c32)c(F)cc1F`, the melting point lay in the range of 141 to 143 °C.
For the molecule `Clc1ncc(Cl)c(NC2CCCCC2)n1`, the melting point is 93 to 94 °C.
Under `CC(C)OC(=Cn1ccnc1)c1ccc(Cl)cc1Cl` stands 184 to 186 °C.
As to `CN(C)c1ccc(-c2cc(C(F)(F)F)c3c(-c4ccccc4)nn(COCC[Si](C)(C)C)c3n2)cc1`, the melting point turned out to be 98 °C.
Then `O=C(O)c1cccc(-c2ccc(F)c3cc(Cc4cc(F)cc(Cl)c4)sc23)c1`, with 185 to 186 °C; and `Cc1c(SCCN2CCCCC2)ccnc1CSc1nc2ccccc2[nH]1`, with 138 to 140 °C; and `C[Si]1(C(CN)CC(=O)O)CCCCC1` (stereo not drawn), with 160 to 162 °C.
As to `c1ccc(-c2nc(-c3ccc(CN4CCCCCC4)s3)n[nH]2)nc1`, the melting point is 160 to 162 °C.
In turn, `CCOC(=O)c1cc(C)nc2c(OCc3ccccc3)cccc12` returned a melting point of 134 °C.
Molecule `CCCCCCC1C(=O)NC(C(=O)SC2CCCCC2)(C(O)C2C=CCCC2)C1(C)O` (stereo not drawn) displayed a melting point of 85 °C.
For the molecule `Cc1oc(-c2ccc(C(F)(F)F)cc2)nc1COc1cccc(C=CC(C)n2oc(=O)[nH]c2=O)c1` (stereo not drawn), the melting point is 104 to 105 °C.
Take `S=C(c1cc2n(c1)Cc1ccccc1-n1ccnc1-2)N1CCOCC1`: the melting point is 210 to 211 °C.
For `COc1ccc2cc(-c3ccncn3)ccc2n1`, the melting point lay in the range of 164 to 165 °C.
The molecule `O=C1NCC(C(=O)NCCO[N+](=O)[O-])S1` (stereo not drawn) displayed a melting point of 114 to 115 °C.
Molecule `O=C(Nc1ccccc1C(F)(F)F)OCc1nccn1-c1cc2cc(C(=O)O)c(=O)[nH]c2cc1Cl` returned a melting point of over 300 °C.
As to `O=C(c1ccc(Nc2ccnc3cc(Cl)ccc23)cc1)N1CCNCC1`, the melting point lay in the range of 248 to 250 °C.
Then `CNC(=S)Nc1c(C)cccc1N1CCOCC1`, with 182 to 183 °C.
In turn, `CCOC(=O)c1ccc(N=C(Nc2ccc(C(=O)OCC)cc2)c2cccc(Cl)c2)cc1` had a melting point of 160 to 170 °C.
Turning to `NC(=O)c1cccc(OCCCCCBr)c1`, the melting point was in the range of 98 to 99 °C.
The molecule `CCCOc1ncc(I)cc1-c1nc2c(CC)nn(CCN3CCOCC3)c2c(=O)[nH]1` yielded a melting point of 175 to 177 °C.
As for `COCOc1cc(OC)ccc1C(=O)c1ccc(OCc2nc(-c3ccccc3)oc2C)cc1`, the melting point lay in the range of 119 to 120 °C.
Regarding `CC(Cl)(Cl)C(NC(=O)c1cccs1)NC(=NC#N)Nc1ccc(Cl)nc1` (stereo not drawn), the melting point fell in the range of 201 to 203 °C.
Under `CCOC(=O)c1cn(Cc2ccccc2)nc1OCc1cccc(OCc2nc(-c3ccccc3)oc2C)c1` stands 95 to 96 °C; under `COCCOc1ccc(CCCOC(=O)NS(=O)(=O)NC2CCC(C)CC2)c(Oc2ncc(C(F)(F)F)cc2Cl)c1` (stereo not drawn), 122 °C; under `NC(CF)(Cc1cccc(O)c1)C(=O)O` (stereo not drawn), 227 °C.
With `COc1c(Br)c(O)c(Br)c2nc(-c3ccc(O)cc3)oc12`, the melting point lay in the range of 246 to 248 °C.
Consider `CCCCN1C(=O)c2cccc3c(SC)ccc1c23`, for which the melting point was in the range of 75 to 77 °C.
On to `CS(=O)(=O)Nc1ccc(OCC2CCN(C(=O)OCc3ccccc3)CC2)cc1`, for which the melting point is 150 to 151 °C.
As to `CN(C)c1cc(-c2c[nH]c(N)n2)ccn1`, the melting point was over 270 °C.
`c1ccc2c(c1)N(CC1CCCCC1)CC21COc2cc3c(cc21)OCO3` (stereo not drawn) showed a melting point of 153 to 154 °C.
`CO[C@H]1CC[C@H]([C@H]2CC[C@H](CCC3OCCO3)CC2)CC1` came in with a melting point of 74 °C.
In turn, `COc1ccccc1Oc1c(NS(=O)(=O)c2ccc(C(C)(C)C)cc2)nc(SC)nc1OCCOc1ncc(Br)cn1` gave a melting point of 117 to 121 °C.
Under `CCC(NC(=O)c1sc(NC(=O)c2ccccc2)nc1C)c1ccccc1` (stereo not drawn) stands 87 to 89 °C.
`COc1ccc(NC(=O)c2ccccc2)cc1Nc1ccccc1` came in with a melting point of 209 to 210 °C.
Regarding `Cn1c(Cl)cnc1C#N`, the melting point was 87 to 89 °C.
In turn, `O=C1NC(=O)C(=Cc2ccc(OCCN(Cc3ccccc3)c3nc4ccccc4s3)cc2)S1` came in with a melting point of 185 to 188 °C.
In the case of `NC(=O)C(OCc1ccc(Cl)cc1)(C(F)(F)F)C(F)(F)F`, the melting point was in the range of 94 to 95 °C.
`COc1ccc2c(c1[N+](=O)[O-])C(=O)CC2` yielded a melting point of 155 to 158 °C.
As to `Cc1nc2cc(Br)cc(Br)c2o1`, the melting point lay in the range of 122 to 124 °C.
`CC(=O)N[C@@H](C)COC1CCN(c2nc3ccc(OCC(F)(F)F)cc3s2)CC1` displayed a melting point of 129 to 131 °C.
Under `CN(C)c1cccc2c(S(=O)(=O)Nc3ccc(Cl)nn3)cccc12` stands 153 to 154 °C; under `CCCCCCCNC(=O)Nc1c(C(=O)NC2CCN(C(c3ccccc3)c3ccccc3)CC2)cccc1C(C)C`, 209 to 212 °C; under `O=C(Nc1ccc(-c2c[nH]c(=O)cn2)cc1)c1ccccc1`, over 300 °C.
In the case of `Cc1cn(-c2ccc3nnc4c(C)nc(CC(C)C)n4c3c2)c(CC(C)C)n1`, the melting point lay within 134 to 136 °C.
The molecule `CCCc1nc(SC(F)F)c(C(=O)O)n1Cc1ccc(-c2ccccc2S(=O)(=O)NC(=O)NCc2ccccc2Cl)cc1` displayed a melting point of 134 °C.
As for `CCOC(=O)c1ncn(-c2ccc(C(F)(F)F)cc2N)c1C`, the melting point fell in the range of 185 to 186 °C.
Then `Clc1cnc2c(COCn3cncn3)c(Cl)ccc2c1`, with 156 to 158 °C.
On to `O=C(N[C@H]1CCN(CCc2ccc(F)cc2)C1)C(C1CCCCC1)C1CCCCC1`, for which the melting point was in the range of 122 to 124 °C.
The molecule `C=Cc1ccc(NC(=O)OC)nc1` came in with a melting point of 146 to 148 °C.
Take `O=C(O)c1cc(Cn2cc(C3c4ccccc4C=Cc4ccccc43)c(=S)[nH]c2=O)ccc1O`: the melting point is over 240 °C.
Then `COC(=O)CCCc1cc2nc(Cl)ccc2n1S(=O)(=O)c1ccc2ncccc2c1`, with 133 to 141 °C; and `CC(=O)OCc1c(Br)cccc1[N+](=O)[O-]`, with 36 to 37 °C.
The molecule `CCc1cccc2c(/C=C(\C)C(=O)O)cc(OC)c(OCOC)c12` showed a melting point of 127 to 128 °C.
Then `CCCCc1ccc(-c2ccc(CCc3ccc(OC)cc3)cc2)c(F)c1`, with 49 °C; and `CC(NC(=O)N1CCc2cc(S(=O)(=O)N3CCN(c4cccc(Cl)c4)CC3)ccc21)C(=O)O` (stereo not drawn), with 175 to 176 °C; and `Cc1ccc(N2CCN(Cc3ccc4c(c3)NCCN4)CC2)cc1C`, with 148 to 149 °C.
`O=S(=O)(c1ccccc1)N1CCC(C(c2ccc(F)cc2)c2ccc(F)cc2)CC1` displayed a melting point of 180 to 184 °C.
As for `CN1CCN(C(=NS(=O)(=O)c2ccc(F)cc2)N2CC(c3ccccc3)C(c3cccnc3)=N2)CC1` (stereo not drawn), the melting point lay within 169 to 170 °C.
Under `O=C(O)Cc1cccc(OCCCCc2cc(-c3ccc(C(F)(F)F)cc3)no2)c1` stands 134 to 135 °C.
For `CCCCCS(=O)(=O)NC(=O)c1ccc2sc(C)c(Cc3ccc(Cl)c(Cl)c3)c2c1`, the melting point lay in the range of 159 to 160 °C.
For the molecule `Cc1ccc(S(=O)(=O)N2CCC[C@H]2C(=O)N[C@@H](Cc2ccc(OCC(=O)NC(C)(C)C)cc2)C(=O)O)cc1`, the melting point fell in the range of 88 to 89 °C.
The molecule `COC(=O)C1=C(N)CCC1` gave a melting point of 95 to 96 °C.
For the molecule `CS(=O)CCNC(=O)c1cccc(-c2cccc(Oc3cc(Cl)cc(Cl)c3)n2)c1` (stereo not drawn), the melting point lay within 158 to 159 °C.
On to `COc1ccc2ccccc2c1-c1c(C)c2c(c(C)c1P(c1ccccc1)c1ccccc1)COC2`, for which the melting point stood at 159 °C.
In the case of `Nn1cccc1C(=O)c1ccccc1F`, the melting point is 44 to 47 °C.
Then `NNC(=O)c1cnc2n(c1=O)CCCCC2`, with 184 to 186 °C; and `CC(C)S(=O)(=O)NC(=O)c1cccc(N)c1`, with 190 to 193 °C; and `Cc1ccc(-c2nnc(N3CCOCC3)nc2-c2ccc(C)cc2)cc1`, with 190 to 192 °C.
Then `Cc1nc(N)sc1-c1ccnc(Nc2cccc(S(=O)(=O)N3CCOCC3)c2)n1`, with 215 to 216 °C; and `Cn1cnc(S(=O)(=O)O)c1Cl`, with 309 to 310 °C.
`CCOC(=O)c1[nH]nnc1Nc1ccc(Cl)cc1` came in with a melting point of 161 °C.
`O=C(O)c1ccc2nc(-n3nc4c(c3O)-c3ccccc3CC4)sc2c1`: the melting point is over 280 °C.
The molecule `CCCCCC=Cc1cccc2c(=O)[nH]c(-c3cc(S(=O)(=O)N4CCOCC4)ccc3OCCC)nc12` showed a melting point of 112 °C.
`CN(C)C(=O)Oc1ccc2nc(S(N)(=O)=O)sc2c1` displayed a melting point of 208 to 209 °C.
Then `CCCCCCN(C)c1ccc(C=C2SC(=S)N(CCNC(=O)C(F)(F)F)C2=O)cc1`, with 136 to 139 °C; and `CC(=O)NCc1cc(Br)cc2[nH]c(=O)c(=O)[nH]c12`, with over 300 °C; and `COc1ccc2cc(CCl)c(CCl)cc2c1Cl`, with 103 °C.
In turn, `CCOC(=O)c1nc(C)oc1C(=O)NC(C)(C)C` registered a melting point of 152 to 155 °C.
Turning to `CC1Cc2ccccc2N1c1nc(=O)c2cccnc2s1` (stereo not drawn), the melting point lay in the range of 179 to 180 °C.
Then `CCS(=O)CC(=C1NCCCS1)[N+](=O)[O-]` (stereo not drawn), with 102 to 104 °C.
